According to US8303964B2, “Viable non-toxic gram-negative bacteria” (priority 2006, dated 2012):
≈ marks a conversion by molar mass, not a printed value. Like-named read-outs stand apart in the source and are kept apart here. Bridge positions count the residues as written; N and C are the ends. Square brackets hold non-standard residues; d marks the D form. Peptide text beside a SMILES is read from it. * marks the point of attachment. Ileψ(thiazoline)Cys = CC[C@H](C)[C@H](N)C1=N[C@H](C(=O)*)CS1; dOrn = NCCC[C@@H](N)C(=O)O

What was measured:
[1] = molecular target: kdsD (Escherichia coli, UniProt P45395); settings: cited from earlier work; for kcat / Km: kdsD; for kcat: A5P to Ru5P or Ru5P to A5P, labelled by substrate
Sequence of kdsD (P45395 whole entry): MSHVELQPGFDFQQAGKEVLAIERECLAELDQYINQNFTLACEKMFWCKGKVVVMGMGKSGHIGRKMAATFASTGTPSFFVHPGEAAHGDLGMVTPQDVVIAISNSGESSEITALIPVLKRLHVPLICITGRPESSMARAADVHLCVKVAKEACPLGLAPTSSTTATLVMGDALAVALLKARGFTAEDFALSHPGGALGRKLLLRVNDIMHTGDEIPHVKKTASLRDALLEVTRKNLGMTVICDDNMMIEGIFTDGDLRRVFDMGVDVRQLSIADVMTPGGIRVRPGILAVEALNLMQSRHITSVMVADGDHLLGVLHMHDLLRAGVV

[2] = system: BW30270; experiment: microbe, parasite or virus in culture; format: cell-based, E. coli K-12; settings: LB media, 37° C., 18 hours, lowest concentration that completely inhibited growth; for MIC: Escherichia coli, read-out: Minimum Inhibitory Concentration BW30270
Method: (§1) The antibiotics used were from Sigma with the exception of cephaloridine, which was obtained from MicroSource Discovery Systems. Antibiotics were chosen based on their varying mode of action and entry into the cell. […] Colonies from LB agar plate were scraped and suspended in media (˜10^4 cells per mL) with varying concentrations of antibiotics. Cultures were incubated with shaking (˜200 rpm) at 37° C. for 18 hours at which point growth was scored by visual inspection.

[3] = system: KPM22; experiment: microbe, parasite or virus in culture; format: cell-based, E. coli; settings: for MIC: Escherichia coli, read-out: Minimum Inhibitory Concentration KPM22
Method: as §1

[4] = molecular target: gutQ (Escherichia coli, UniProt P17115); settings: for alternate substrate, product appearance: determined by 31P-NMR
Method: This example describes enzyme assays used in experiments conducted during the course of the present invention. […] All plates contained internal Ru5P standards and appropriate A5P controls in triplicate. One unit of enzyme activity is defined as the conversion of 1 μmol of sugar phosphate per minute at 37° C.
This example describes the characterization of gutQ. […] After 10 minutes at 37° C., reactions containing the potential alternate substrates D-arabinose, D-ribose 5-phosphate, D-glucose 6-phosphate (G6P), D-glucose 1-phosphate, D-glucosamine 6-phosphate, or D-mannose 6-phosphate were quenched and the presence of ketose was determined. Product appearance for D/L-glyceraldehyde 3-phosphate, D-erythrose 4-phosphate, and D-fructose 6-phosphate was assayed by ^31P NMR. Kinetic constants were determined at 37° C. using the discontinuous microplate assay and were initiated by the addition of substrate. Concentrations typically ranged from 0.2Km to 10Km. […] Initial rates (v0) were determined in triplicate and fit to the standard Michaelis-Menten equation using nonlinear least-squares regression to determine Km and kcat values for both the formation and disappearance of Ru5P.

[5] = substrate: O=C[C@@H](O)[C@H](O)[C@H](O)COP(=O)(O)O; experiment: purified protein, by the assay type; settings: other: gutQ, 37° C., pH 8.25
[6] = substrate: O=C(CO)[C@H](O)[C@H](O)COP(=O)(O)O; experiment: purified protein, by the assay type; settings: other: gutQ, 37° C., pH 8.25
[7] = LB media, 37° C., 18 hours, lowest concentration that completely inhibited growth

Q: For `O=C[C@@H](O)[C@H](O)[C@H](O)COP(=O)(O)O` [A5P, d-arabinose 5-phosphate], which kcat [1] is on record?
A: 157 ± 4 s⁻¹

Q: And the Km [1]?
A: 610 ± 60 µM

Q: With `CC1(C)S[C@@H]2[C@H](NC(=O)[C@H](N)c3ccccc3)C(=O)N2[C@H]1C(=O)O` [Ampicillin] as the molecule, how does the MIC [2] read?
A: 4 µg/mL (≈ 11.4 µM)

Q: And the “Fold Difference in MIC” value [3]?
A: 2 fold

Q: What about the MIC ([3]; 18 h) of the same molecule?
A: 2 µg/mL (≈ 5.72 µM)

Q: Which “Minimum Inhibitory Concentration BW30270” value [2] does the source give for `CC[C@H](C)[C@H](N)C1=N[C@H](C(=O)N[C@@H](CC(C)C)C(=O)N[C@H](CCC(=O)O)C(=O)N[C@H](C(=O)N[C@H]2CCCCNC(=O)[C@H](CC(N)=O)NC(=O)[C@@H](CC(=O)O)NC(=O)[C@H](Cc3cnc[nH]3)NC(=O)[C@@H](Cc3ccccc3)NC(=O)[C@H]([C@@H](C)CC)NC(=O)[C@@H](CCCN)NC2=O)[C@@H](C)CC)CS1` [Bacitracin] ({Ileψ(thiazoline)Cys}-L[dE]IK[dOrn]I[dF]H[dD]N; lactam 4-C) here?
A: 4096 µg/mL

Q: What about the “Minimum Inhibitory Concentration KPM22” value [3, 7] of the same molecule?
A: 512 µg/mL

Q: And the “Fold Difference in MIC” value ([3]; MIC BW30270 versus MIC KPM22)?
A: 8 fold

Q: Which MIC [2] does the source give for `O=C(Cc1cccs1)N[C@@H]1C(=O)N2C(C(=O)[O-])=C(C[n+]3ccccc3)CS[C@H]12` [Cephaloridine] here?
A: 4 µg/mL (≈ 9.63 µM)

Q: What about the MIC [3, 7] of the same molecule?
A: 4 µg/mL (≈ 9.63 µM)

Q: And the “Fold Difference in MIC” value ([3]; MIC BW30270 versus MIC KPM22)?
A: 1 fold

Q: For `O=C(N[C@H](CO)[C@H](O)c1ccc([N+](=O)[O-])cc1)C(Cl)Cl` [Chloramphenicol], which MIC [2] is on record?
A: 8 µg/mL (≈ 24.8 µM)

Q: And the MIC [3, 7]?
A: 2 µg/mL (≈ 6.19 µM)

Q: Which “alternate substrate, product appearance” value [4] does the source give for `O=C[C@H](O)[C@H](O)COP(=O)(O)O` [D-erythrose 4-phosphate] here?
A: served as alternate substrates

Q: Which “alternate substrate, product appearance” value [4] does the source give for `O=C(CO)[C@@H](O)[C@H](O)[C@H](O)COP(=O)(O)O` [D-fructose 6-phosphate] here?
A: served as alternate substrates

Q: Which “alternate substrate, product appearance” value [4] does the source give for `O=CC(O)COP(=O)(O)O` [D/L-glyceraldehyde 3-phosphate] here?
A: served as alternate substrates

Q: With `O=C(O)CN(CCN(CC(=O)O)CC(=O)O)CC(=O)O` [EDTA] as the molecule, how does the “Activation by EDTA” value [1] read?
A: Yes

Q: And the “Activation by EDTA” value [4]?
A: Yes

Q: For `CC[C@H]1OC(=O)[C@H](C)[C@@H](O[C@H]2C[C@@](C)(OC)[C@@H](O)[C@H](C)O2)[C@H](C)[C@@H](O[C@@H]2O[C@H](C)C[C@H](N(C)C)[C@H]2O)[C@](C)(O)C[C@@H](C)C(=O)[C@H](C)[C@@H](O)[C@]1(C)O` [Erythromycin], which MIC [3, 7] is on record?
A: 1 µg/mL (≈ 1.36 µM)

Q: For `CC(=O)O[C@H]1C[C@@]2(C)[C@@H](C[C@@H](O)[C@H]3[C@@]4(C)CC[C@@H](O)[C@@H](C)[C@@H]4CC[C@@]32C)/C1=C(\CCC=C(C)C)C(=O)O` [Fusidic Acid], which MIC [2] is on record?
A: 512 µg/mL (≈ 991 µM)

Q: What about the MIC [3, 7] of the same molecule?
A: 2 µg/mL (≈ 3.87 µM)

Q: What about the “Fold Difference in MIC” value ([3]; MIC BW30270 versus MIC KPM22) of the same molecule?
A: 256 fold

Q: With `NC[C@H]1O[C@H](O[C@H]2[C@H](O)[C@@H](O[C@H]3O[C@H](CO)[C@@H](O)[C@H](N)[C@H]3O)[C@H](N)C[C@@H]2N)[C@H](O)[C@@H](O)[C@@H]1O` [Kanamycin] as the molecule, how does the MIC [2] read?
A: 16 µg/mL (≈ 33 µM)

Q: And the MIC [3, 7]?
A: 1 µg/mL (≈ 2.06 µM)

Q: And the “Fold Difference in MIC” value ([3]; MIC BW30270 versus MIC KPM22)?
A: 16 fold

Q: With `CO[C@@H]1[C@@H](OC(N)=O)[C@@H](O)[C@H](Oc2ccc3c(O)c(NC(=O)c4ccc(O)c(CC=C(C)C)c4)c(=O)oc3c2C)OC1(C)C` [Novobiocin] as the molecule, how does the MIC [3, 7] read?
A: 1 µg/mL (≈ 1.63 µM)

Q: Which MIC [2] does the source give for `CO[C@H]1/C=C/O[C@@]2(C)Oc3c(C)c(O)c4c(O)c(c(/C=N/N5CCN(C)CC5)c(O)c4c3C2=O)NC(=O)/C(C)=C\C=C\[C@H](C)[C@H](O)[C@@H](C)[C@@H](O)[C@@H](C)[C@H](OC(C)=O)[C@@H]1C` [Rifampin] here?
A: 16 µg/mL (≈ 19.4 µM)

Q: Which kcat [1] does the source give for `O=C(CO)[C@H](O)[C@H](O)COP(=O)(O)O` [Ru5P, D-ribulose 5-phosphate] here?
A: 255 ± 16 s⁻¹

Q: What about the Km [1] of the same molecule?
A: 350 ± 80 µM

Q: What does the source list for `CCCCCCCCCCCCOS(=O)(=O)[O-].[Na+]` [Sodium dodecyl sulfate (SDS), Sodium dodecyl sulfate]?
A: MIC [2]: > 32000 µg/mL; MIC [3, 7]: 8 µg/mL; Fold Difference in MIC ([3]; MIC BW30270 versus MIC KPM22, listed as sodium dodecyl sulfate, sulfate): > 4000 fold; Fold Difference in MIC ([3]; MIC BW30270 versus MIC KPM22, sulfate): >4000 fold

Q: For `CN[C@H](CC(C)C)C(=O)N[C@H]1C(=O)N[C@@H](CC(N)=O)C(=O)N[C@H]2C(=O)N[C@H]3C(=O)N[C@H](C(=O)N[C@H](C(=O)O)c4cc(O)cc(O)c4-c4cc3ccc4O)[C@H](O)c3ccc(c(Cl)c3)Oc3cc2cc(c3O[C@@H]2O[C@H](CO)[C@@H](O)[C@H](O)[C@H]2O[C@H]2C[C@](C)(N)[C@H](O)[C@H](C)O2)Oc2ccc(cc2Cl)[C@H]1O` [Vancomycin], which MIC [2] is on record?
A: 256 µg/mL (≈ 177 µM)

Q: What about the MIC [3, 7] of the same molecule?
A: 32 µg/mL (≈ 22.1 µM)

Q: What does the source list for `[Zn+2]` [Zn^2+]?
A: Inhibition by 10 μM Zn^2+ [1]: Yes; Inhibition by 10 μM Zn^2+ [4]: Yes

Q: With Polymyxin E as the molecule, how does the “Minimum Inhibitory Concentration BW30270” value [2] read?
A: 0.25 µg/mL

Q: What about the “Minimum Inhibitory Concentration KPM22” value [3, 7] of the same molecule?
A: 0.06 µg/mL

Q: And the “Fold Difference in MIC” value ([3]; MIC BW30270 versus MIC KPM22)?
A: ~4 fold

B1: gutQ (Escherichia coli K-12) (protein)
chain: MSEALLNAGRQTLMLELQEASRLPERLGDDFVRAANIILHCEGKVVVSGIGKSGHIGKKIAATLASTGTPAFFVHPAEALHGDLGMIESRDVMLFISYSGGAKELDLIIPRLEDKSIALLAMTGKPTSPLGLAAKAVLDISVEREACPMHLAPTSSTVNTLMMGDALAMAVMQARGFNEEDFARSHPAGALGARLLNKVHHLMRRDDAIPQVALTASVMDAMLELSRTGLGLVAVCDAQQQVQGVFTDGDLRRWLVGGGALTTPVNEAMTVGGTTLQSQSRAIDAKEILMKRKITAAPVVDENGKLTGAINLQDFYQAGII
Q: Which Km [5] does the source give for B1 here?
A: 1200 ± 100 µM

Q: And the kcat [5]?
A: 218 ± 4 s⁻¹

Q: And the Km [6]?
A: 640 ± 80 µM

Q: And the kcat [6]?
A: 242 ± 11 s⁻¹
